Results reported in patent EP2323645B1, “USE OF LOW-DOSE LOCAL ANAESTHETIC OR DERIVATIVES THEREOF FOR THERAPY OF CHRONIC PAIN, ESPECIALLY MIGRAINE” (priority 2008, dated 2010).

How the values were obtained:
[1] = system: Kopfschmerzen vom Spannungstyp; assay: Comparative trial of lidocaine, mepivacaine and bupivacaine in tension-type headache (infiltration anaesthesia C1 to C3); type: in vivo, Patienten; settings: equipotent dilution 1:5 (Lidocain 0,1 Gew.-%, Bupivacain 0,05 Gew.-%, Mepivacain 0,1 Gew.-%), twice daily for 7 days, 3 male patients, 10-point pain scale
Kopfschmerzen = settings: 0,5 %, cervical intramuscular injection; Mellick et al. 2006; cited from earlier work
spinaler Nozizeptoren = assay: Blockade of spinal nociceptors in healthy volunteers; type: in vivo, gesunden Probanden
From the text: Die Verabreichung des hier beschriebenen niedrig-dosierten Lidocains oder eines 3-OH-oder 4-OH-Derivats davon in den hier beschriebenen niederen Konzentrationen, z.B. in der erfindungsgemäßen pharmazeutischen Zusammensetzung, kann, insbesondere in der Migräne-Therapie, durch Infiltrations-Anästhesie stattfinden, bspw. durch gezielte, simultane Infiltrations-Anästhesien an der Schädelbasis (ventrale Äste von C1) sowie der ventralen Äste der Spinal-Nerven C2 und C3 unter Anwendung einer pharmakologisch und technisch ziel- und zweckoptimierten Methode. Unter Einsatz der erfindungsgemäßen pharmazeutischen Zusammensetzungen lassen sich die oben beschriebenen Migräne-Schmerzen sowie die Symptome einer vestibulären Dysfunktion - Übelkeit und Schwindel - unabhängig von der vorbestehenden Anfallsdauer einer Migräne spontan und definitiv abortieren. Die Konzentration des dafür verwendeten Lidocains oder eines 3-OH- oder 4-OH-Derivats davon in der erfindungsgemäßen pharmazeutischen Zusammensetzung ist bevorzugt so eingestellt, dass keine motorischen oder Sensibilitäts-Störungen auftreten.

Migräne = assay: Treatment of migraine by local deep paravertebral injection of low-dose lidocaine; type: in vivo, Patienten; settings: 0,1 Gew.-% in Ringer solution, usually 2 to 4 injections per session; within a few minutes; complete freedom from pain and complaints without typical relapse tendency
From the text: (§1) Art und Umfang der beklagten Schmerzen und Beschwerden bestimmen unter (ausschließlich) neuroanatomischen und funktionspathologischen Gesichtspunkten die ursachenorientierte Auswahl von Injektionsort, Injektionsmenge und Injektionstiefe sowie die Auswahl der verwendeten Injektionskanülen, z.B. innerhalb einer Bandbreite zwischen 20 und 100 mm Länge, bei grundsätzlich identischer, jedoch gegenüber herkömmlicher Verfahrensweise grundlegend veränderter, Injektionstechnik (siehe z.B. Figuren 1 bis 3).
(§2) Vor Behandlungsbeginn werden mit Ausnahme von Benzodiazepinderivaten sämtliche "schmerz- und beschwerdespezifische" Medikamente spontan abgesetzt. Benzodiazepinderivate werden schleichend eliminiert.
Anzahl der Injektionen und Injektionsorte sind abhängig vom aktuellen Untersuchungsbefund sowie von Patientenangaben zu Schmerzen und Beschwerden. Bevorzugt werden tiefe paravertebrale Injektionen von dorsal in antero-lateraler Stichführung in Gewebe der oberen Halswirbelsäule (s. Figur 2) oder der oberen Brustwirbelsäule (s. Figur 1) vorgenommen, je Behandlungssitzung in der Regel 2 bis 4 Injektionen.
(s. Figur 2: Einstichpunkte im Bereich der oberen und mittleren Halswirbelsäule) • Ergebnis: Der Patient war nach 2 ½ Behandlungstagen und seither dauerhaft schmerz- und beschwerdefrei.

[2] = system: episodischer und chronischer Kopfschmerzen vom Spannungs-Typ; assay: Treatment of episodic and chronic tension-type headache; type: in vivo, Patienten
From the text: as §1, §2
Behandlung: Die Anzahl der Injektionen und Injektionsorte sind abhängig vom aktuellen Untersuchungsbefund sowie von Patientenangaben zu Schmerzen und Beschwerden. Bevorzugt werden tiefe paravertebrale Injektionen in Gewebe der oberen und mittleren Halswirbelsäule vorgenommen, je Behandlungssitzung in der Regel 6 bis 8 Injektionen mit gegenüber der vorbeschriebenen Migräne-Behandlung geringerer Einstichtiefe.

[3] = system: therapieresistenter chronischer Schulter-Arm-Schmerzen; assay: Treatment of therapy-resistant chronic shoulder-arm pain; type: in vivo, Patienten; settings: 2 to 4 deep paravertebral injections, middle cervical spine, 0,1 Gew.-%
From the text: as §1
Behandlung: 2 bis 4 tiefe, seitengleiche paravertebrale Injektionen in Gewebe der mittleren Halswirbelsäule.

chronisches LWS-Syndrom = assay: Treatment of therapy-resistant chronic pain of hips, legs and feet (chronic lumbar spine syndrome); type: in vivo, Patienten; settings: single case, patient, left-sided syndrome for 10 years, repetitive injections L3 to L5 left
From the text: as §1
Behandlung: 2 bis 4 tiefe, seitengleiche paravertebrale Injektionen in Gewebe der mittleren und unteren Lendenwirbelsäule bzw. der oberen Kreuzbeinregion (: L3 bis SI alternierend).
Aktueller Fall: • 71-jähriger Patient. Seit 10 Jahren progrediente Krankheitsentwicklung eines chronischen, linksseitigen LWS-Syndroms mit belastungsabhängigen Schmerzen und • Taubheitsgefühl in Oberschenkel und Knie sowie belastungsabhängigem, progredientem Kraftverlust des linken Beines. • Behandlung: Repetitive paravertebrale Injektionen L3 bis L5 links. • Ergebnis: Vollständige Remission aller Beschwerden nach 10 Behandlungssitzungen.

Trigeminusneuralgie = assay: Treatment of trigeminal neuralgia; type: in vivo, Patienten; settings: superficial wide-area injection of the affected nerve branch; as a rule; rarely one or two repeat injections needed
From the text: as §1
Behandlung: Oberflächliche, großflächig ausgebrachte Injektion des betroffenen Nervenastes am Ort seiner stärksten Irritation;

Occipitalisneuralgie = assay: Treatment of occipital neuralgia; type: in vivo, Patienten
From the text: as §1
Behandlung: Je nach Untersuchungsbefund oberflächliche, großflächig ausgebrachte oder tiefe Injektionen des bzw. der betroffenen Nervenäste;

[4] = system: Menstruationsbeschwerden (Menorrhagien); settings: as a rule after two to four further identical sessions
chronischer Verletzungen = assay: Treatment of chronic injuries
[5] = system: akuter kleinflächiger Verletzungen; assay: Treatment of acute small-area injuries
chronischer Migräne = assay: Retrospective analysis of 84 chronic migraine patients treated with repeated deep dorsal cervico-thoracic sympathetic blocks; settings: for Rückgang aller Schmerzen und Begleitsymptome auf: end of treatment
[6] = system: Phantom- oder Stumpfschmerz; settings: 0,1 - 1,0 ml of 1 % solution; Gross, Anaesthesist 1985; cited from earlier work
[7] = system: neuropathischen Schmerzen; settings: 0.2 %, repeated epidural administration, rat model; Chiyo et al. 2008; cited from earlier work
Neuralgien = settings: 5 %; Katsushi et al.; cited from earlier work

CCCCN1CCCCC1C(=O)Nc1c(C)cccc1C (centres unmarked) [Bupivacain]
Wirkung und Therapieeffekt gegenüber Lidocain [1]: etwa vergleichbare Wirkung und Therapieeffekt | Behandlungsergebnis (Kopfschmerzen): erfolgreich behandelt

CCN(CC)CC(=O)Nc1c(C)cccc1C [Lidocain]
Beeinträchtigung der Sensibilität (spinaler Nozizeptoren): ohne Beeinträchtigung der Sensibilität | Anfallsdurchbrechung (Migräne): vollständige Anfallsdurchbrechung | Ergebnis der Repetition der Behandlung ([2]; repeated treatment, stepwise lengthening of pain-free intervals): dauerhaften Schmerzfreiheit | Sensibilitätsstörungen ([2]; typical case, 0,1 Gew.-%): ohne die von Injektionen mit herkömmlicher Lokalanästhetika-Konzentration bekannten Sensibilitätsstörungen | Remission von Schmerzen und Beschwerden [3]: Spontane Remission | Vollständige Remission aller Beschwerden nach (chronisches LWS-Syndrom): 10 Behandlungssitzungen | Ergebnis (Trigeminusneuralgie): Spontan-Remission | Ergebnis Tiefe Nervenäste (Occipitalisneuralgie; deep nerve branches, repeat injections necessary): eher verzögert | Ergebnis oberflächliche Nervenäste (Occipitalisneuralgie; superficial nerve branches, as a rule, rarely one or two repeat injections): Spontan-Remission | Blutungsmenge und Blutungsdauer [4]: vollständige Normalisierung | Sensibilitätsstörungen (chronischer Verletzungen; in vivo): ohne Sensibilitätsstörungen | Remission (chronischer Verletzungen; multiple repetition at 24-hour intervals): schrittweisen und i.d.R. vollständigen Remission | Schmerzreduktion (chronischer Verletzungen; targeted injections into the traumatised tissue): spontane Schmerzreduktion | Sensibilitätsstörungen ([5]; in vivo): ohne Sensibilitätsstörungen | (Wund-)Heilungsdauer ([5]; one or two repetitions at 24-hour intervals, as a rule): Halbierung der sonst üblichen (Wund-)Heilungsdauer | Schmerzfreiheit ([5]; superficial injections into the traumatised tissue): spontane Schmerzfreiheit | Rückgang aller Schmerzen und Begleitsymptome auf (chronischer Migräne; 4-week treatment group (n=21)): 3,2% | Rückgang aller Schmerzen und Begleitsymptome auf (chronischer Migräne; 5-week treatment group (n=43)): 1,1% | Rückgang aller Schmerzen und Begleitsymptome auf (chronischer Migräne; 6-week treatment group (n=20)): 1,0% | lang anhaltender therapeutischer Effekt (chronischer Migräne; after end of the treatment period, together with instructions on posture and lifestyle): mindestens einigen Jahren | Rückgang der Gesamtsummen aller Schmerz-Intensitäten und Migräne-Begleitsymptome auf (chronischer Migräne; end of first week, all treatment periods of 4, 5 or 6 weeks, relative to last severe attack without medication, twice daily): < 10% | Kopfschmerzen vom Spannungs-Typ (chronischer Migräne; patients with concomitant tension-type headache): schrittweise bis zum Ende jeder Behandlungs-Periode beseitigt | Allgemeinbefinden (chronischer Migräne; under treatment): positive Zunahme

Cc1cccc(C)c1NC(=O)C1CCCCN1C (centres unmarked) [Mepivacain]
Wirkung und Therapieeffekt gegenüber Lidocain [1]: etwa vergleichbare Wirkung und Therapieeffekt | Patienten nachweisbar effektiv behandelt [6]: ca. 80%

CCCN1CCCC[C@H]1C(=O)Nc1c(C)cccc1C [Ropivacain]
analgetischer Effekt [7]: lang anhaltenden analgetischen Effekt

CCCCNc1ccc(C(=O)OCCN(C)C)cc1 [Tetracain]
Behandlungsergebnis (Neuralgien): effektive Behandlung
